Test results from ChEMBL document CHEMBL3991601, “The target landscape of clinical kinase drugs” (Science, 2017).
Active and inactive are the calls of the source.

Tests used:
[1] = target: Myosin light chain kinase, smooth muscle (Homo sapiens, UniProt Q15746)
[2] = target: cAMP-dependent protein kinase type II-alpha regulatory subunit (Homo sapiens, UniProt P13861)
[3] = target: Ephrin type-A receptor 5 (Homo sapiens, UniProt P54756)
[4] = target: Serine/threonine-protein kinase MRCK beta (Homo sapiens, UniProt Q9Y5S2)
Serine/threonine-protein kinase MRCK beta, sequence (Q9Y5S2 whole entry): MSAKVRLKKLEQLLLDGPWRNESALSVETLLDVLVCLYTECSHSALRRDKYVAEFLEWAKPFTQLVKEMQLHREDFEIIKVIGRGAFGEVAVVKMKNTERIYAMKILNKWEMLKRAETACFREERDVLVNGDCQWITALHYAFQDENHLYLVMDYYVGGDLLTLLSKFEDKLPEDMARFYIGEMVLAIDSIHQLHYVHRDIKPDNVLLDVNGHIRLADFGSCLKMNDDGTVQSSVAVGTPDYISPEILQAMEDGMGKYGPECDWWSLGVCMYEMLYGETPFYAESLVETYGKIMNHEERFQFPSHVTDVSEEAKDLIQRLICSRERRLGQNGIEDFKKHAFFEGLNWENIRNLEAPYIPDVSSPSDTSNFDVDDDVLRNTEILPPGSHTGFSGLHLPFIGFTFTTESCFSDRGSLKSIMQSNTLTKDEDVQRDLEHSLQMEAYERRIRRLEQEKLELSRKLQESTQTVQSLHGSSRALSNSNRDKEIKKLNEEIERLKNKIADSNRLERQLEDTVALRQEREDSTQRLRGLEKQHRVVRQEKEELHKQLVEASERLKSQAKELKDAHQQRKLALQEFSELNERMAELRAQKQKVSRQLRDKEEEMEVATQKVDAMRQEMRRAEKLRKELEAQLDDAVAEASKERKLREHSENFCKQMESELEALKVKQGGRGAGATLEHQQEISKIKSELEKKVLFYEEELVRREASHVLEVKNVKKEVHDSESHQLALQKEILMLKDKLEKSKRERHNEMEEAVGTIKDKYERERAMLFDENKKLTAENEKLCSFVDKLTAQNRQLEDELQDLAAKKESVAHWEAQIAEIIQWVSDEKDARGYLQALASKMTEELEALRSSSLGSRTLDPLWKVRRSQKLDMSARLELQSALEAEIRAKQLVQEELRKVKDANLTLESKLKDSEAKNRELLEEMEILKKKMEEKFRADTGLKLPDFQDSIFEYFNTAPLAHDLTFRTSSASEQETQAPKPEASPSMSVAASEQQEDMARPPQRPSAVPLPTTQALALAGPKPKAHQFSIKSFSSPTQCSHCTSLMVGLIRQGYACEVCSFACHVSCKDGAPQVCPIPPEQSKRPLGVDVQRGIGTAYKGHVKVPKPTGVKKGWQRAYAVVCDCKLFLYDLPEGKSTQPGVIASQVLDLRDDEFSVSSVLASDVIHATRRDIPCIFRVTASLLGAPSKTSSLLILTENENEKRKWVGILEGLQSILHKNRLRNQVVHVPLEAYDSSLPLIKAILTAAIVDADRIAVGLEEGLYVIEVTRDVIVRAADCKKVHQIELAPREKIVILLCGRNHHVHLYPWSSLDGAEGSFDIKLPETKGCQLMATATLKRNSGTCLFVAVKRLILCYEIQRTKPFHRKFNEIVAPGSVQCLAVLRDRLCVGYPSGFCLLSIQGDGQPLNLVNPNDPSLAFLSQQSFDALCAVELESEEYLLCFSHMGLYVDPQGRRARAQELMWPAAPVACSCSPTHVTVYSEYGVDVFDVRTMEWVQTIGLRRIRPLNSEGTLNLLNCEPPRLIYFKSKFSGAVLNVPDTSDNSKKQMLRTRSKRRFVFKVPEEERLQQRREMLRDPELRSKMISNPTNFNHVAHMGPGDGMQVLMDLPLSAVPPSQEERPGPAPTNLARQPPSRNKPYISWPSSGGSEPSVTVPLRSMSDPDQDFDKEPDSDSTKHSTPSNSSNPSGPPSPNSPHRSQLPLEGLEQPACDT

[5] = target: T1, Serine/threonine-protein kinase ULK1 (Homo sapiens, UniProt O75385)
T1 sequence (O75385 whole entry): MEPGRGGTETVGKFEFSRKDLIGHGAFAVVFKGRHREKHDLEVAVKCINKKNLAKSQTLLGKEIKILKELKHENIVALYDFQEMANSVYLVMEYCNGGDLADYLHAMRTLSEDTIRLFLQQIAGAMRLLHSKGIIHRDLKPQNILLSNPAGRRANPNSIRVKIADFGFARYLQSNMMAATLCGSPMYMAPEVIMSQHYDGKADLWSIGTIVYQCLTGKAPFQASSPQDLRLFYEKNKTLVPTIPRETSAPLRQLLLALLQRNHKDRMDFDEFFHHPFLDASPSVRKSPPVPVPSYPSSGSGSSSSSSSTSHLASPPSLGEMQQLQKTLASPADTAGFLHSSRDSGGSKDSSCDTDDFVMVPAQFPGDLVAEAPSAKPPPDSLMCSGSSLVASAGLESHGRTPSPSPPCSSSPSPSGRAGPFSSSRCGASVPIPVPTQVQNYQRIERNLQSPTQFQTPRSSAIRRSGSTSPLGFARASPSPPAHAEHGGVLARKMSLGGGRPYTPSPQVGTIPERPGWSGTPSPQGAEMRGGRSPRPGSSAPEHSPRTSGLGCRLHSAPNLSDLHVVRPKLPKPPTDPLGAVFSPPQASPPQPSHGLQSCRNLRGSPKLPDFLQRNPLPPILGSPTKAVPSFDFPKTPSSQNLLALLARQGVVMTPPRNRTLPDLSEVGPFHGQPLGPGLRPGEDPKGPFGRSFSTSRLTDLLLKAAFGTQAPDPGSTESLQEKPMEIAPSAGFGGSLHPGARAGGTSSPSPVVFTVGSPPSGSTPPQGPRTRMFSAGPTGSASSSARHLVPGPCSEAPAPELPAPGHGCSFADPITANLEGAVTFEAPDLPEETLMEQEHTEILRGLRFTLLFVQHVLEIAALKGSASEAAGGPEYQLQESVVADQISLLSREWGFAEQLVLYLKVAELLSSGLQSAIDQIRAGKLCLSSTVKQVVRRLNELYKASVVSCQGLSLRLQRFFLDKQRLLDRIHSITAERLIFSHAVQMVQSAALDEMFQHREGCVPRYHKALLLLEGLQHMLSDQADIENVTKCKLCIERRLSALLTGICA

[6] = target: Activin receptor type-2B (Homo sapiens, UniProt Q13705)
Activin receptor type-2B, sequence (Q13705 whole entry): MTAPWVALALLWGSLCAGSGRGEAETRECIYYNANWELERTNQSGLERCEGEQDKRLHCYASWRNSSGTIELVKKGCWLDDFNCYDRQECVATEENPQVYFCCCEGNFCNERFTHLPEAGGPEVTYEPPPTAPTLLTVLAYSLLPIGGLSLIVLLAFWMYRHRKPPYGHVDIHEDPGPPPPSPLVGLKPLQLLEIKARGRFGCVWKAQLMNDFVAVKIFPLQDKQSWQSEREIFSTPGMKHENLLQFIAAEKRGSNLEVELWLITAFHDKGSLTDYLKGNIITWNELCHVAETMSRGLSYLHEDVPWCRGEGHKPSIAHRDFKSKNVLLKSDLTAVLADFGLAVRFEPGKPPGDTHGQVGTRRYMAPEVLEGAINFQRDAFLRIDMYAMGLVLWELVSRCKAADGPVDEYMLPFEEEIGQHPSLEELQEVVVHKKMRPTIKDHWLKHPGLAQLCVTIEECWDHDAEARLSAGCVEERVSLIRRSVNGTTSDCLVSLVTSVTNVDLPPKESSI

[7] = target: Maternal embryonic leucine zipper kinase (Homo sapiens, UniProt Q14680)
Maternal embryonic leucine zipper kinase, sequence (Q14680 whole entry): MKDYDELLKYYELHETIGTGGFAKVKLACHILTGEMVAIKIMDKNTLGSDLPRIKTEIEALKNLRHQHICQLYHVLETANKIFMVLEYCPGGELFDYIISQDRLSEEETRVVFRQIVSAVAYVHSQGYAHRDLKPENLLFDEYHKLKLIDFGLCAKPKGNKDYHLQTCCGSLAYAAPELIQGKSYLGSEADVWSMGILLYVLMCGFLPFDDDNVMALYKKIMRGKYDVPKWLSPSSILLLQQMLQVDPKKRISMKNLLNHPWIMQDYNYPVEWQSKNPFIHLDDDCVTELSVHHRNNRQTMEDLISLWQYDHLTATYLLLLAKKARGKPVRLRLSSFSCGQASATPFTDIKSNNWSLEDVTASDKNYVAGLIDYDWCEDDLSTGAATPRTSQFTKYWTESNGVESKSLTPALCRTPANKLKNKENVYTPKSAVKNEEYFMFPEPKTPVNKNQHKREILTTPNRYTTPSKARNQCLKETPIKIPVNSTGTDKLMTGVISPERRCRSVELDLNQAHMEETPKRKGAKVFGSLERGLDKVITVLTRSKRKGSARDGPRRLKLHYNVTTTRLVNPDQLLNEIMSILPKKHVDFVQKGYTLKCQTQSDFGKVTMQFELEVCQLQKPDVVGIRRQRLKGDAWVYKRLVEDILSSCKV

[8] = target: T2, Glycine--tRNA ligase (Homo sapiens, UniProt P41250)
T2 sequence (P41250 whole entry): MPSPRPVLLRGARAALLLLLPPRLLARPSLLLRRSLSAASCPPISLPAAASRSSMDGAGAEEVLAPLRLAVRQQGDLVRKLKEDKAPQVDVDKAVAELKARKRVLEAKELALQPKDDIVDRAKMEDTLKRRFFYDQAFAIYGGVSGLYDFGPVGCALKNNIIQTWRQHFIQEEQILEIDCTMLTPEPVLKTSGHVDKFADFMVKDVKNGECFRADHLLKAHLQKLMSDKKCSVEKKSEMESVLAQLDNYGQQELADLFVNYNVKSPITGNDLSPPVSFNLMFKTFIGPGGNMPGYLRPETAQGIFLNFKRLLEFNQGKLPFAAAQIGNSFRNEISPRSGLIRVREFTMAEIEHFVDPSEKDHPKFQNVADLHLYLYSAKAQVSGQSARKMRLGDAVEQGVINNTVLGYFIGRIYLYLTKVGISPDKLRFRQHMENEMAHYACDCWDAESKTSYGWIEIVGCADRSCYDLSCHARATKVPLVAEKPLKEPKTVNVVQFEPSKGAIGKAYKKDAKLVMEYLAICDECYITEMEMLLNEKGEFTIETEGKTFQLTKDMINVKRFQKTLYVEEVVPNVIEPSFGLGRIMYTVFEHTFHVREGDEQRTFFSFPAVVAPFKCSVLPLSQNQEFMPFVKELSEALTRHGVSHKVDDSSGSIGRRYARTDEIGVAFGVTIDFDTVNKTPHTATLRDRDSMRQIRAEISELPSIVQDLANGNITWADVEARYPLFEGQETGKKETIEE

[9] = target: Insulin receptor (Homo sapiens, UniProt P06213)
Insulin receptor, sequence (P06213 28-758 limits assumed): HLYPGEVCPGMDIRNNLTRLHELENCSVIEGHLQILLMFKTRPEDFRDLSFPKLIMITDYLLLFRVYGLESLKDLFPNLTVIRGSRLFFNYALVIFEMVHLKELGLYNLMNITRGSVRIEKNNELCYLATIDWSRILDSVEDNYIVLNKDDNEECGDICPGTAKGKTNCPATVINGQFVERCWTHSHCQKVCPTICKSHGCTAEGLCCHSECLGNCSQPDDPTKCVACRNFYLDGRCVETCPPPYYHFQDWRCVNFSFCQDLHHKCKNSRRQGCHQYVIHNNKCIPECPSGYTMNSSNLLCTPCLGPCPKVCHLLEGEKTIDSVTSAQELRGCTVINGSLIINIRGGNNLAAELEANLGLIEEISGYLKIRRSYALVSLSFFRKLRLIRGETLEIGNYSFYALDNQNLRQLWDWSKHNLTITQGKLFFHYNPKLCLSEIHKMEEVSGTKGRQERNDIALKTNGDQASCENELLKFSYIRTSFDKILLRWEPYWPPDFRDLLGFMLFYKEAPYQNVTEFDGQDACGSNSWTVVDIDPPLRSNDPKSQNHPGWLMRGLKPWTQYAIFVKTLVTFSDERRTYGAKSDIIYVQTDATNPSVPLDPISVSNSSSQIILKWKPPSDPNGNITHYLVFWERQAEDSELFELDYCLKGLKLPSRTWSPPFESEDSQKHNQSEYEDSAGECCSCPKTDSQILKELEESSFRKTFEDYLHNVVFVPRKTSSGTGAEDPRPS
Insulin receptor, sequence (P06213 763-1382 limits assumed): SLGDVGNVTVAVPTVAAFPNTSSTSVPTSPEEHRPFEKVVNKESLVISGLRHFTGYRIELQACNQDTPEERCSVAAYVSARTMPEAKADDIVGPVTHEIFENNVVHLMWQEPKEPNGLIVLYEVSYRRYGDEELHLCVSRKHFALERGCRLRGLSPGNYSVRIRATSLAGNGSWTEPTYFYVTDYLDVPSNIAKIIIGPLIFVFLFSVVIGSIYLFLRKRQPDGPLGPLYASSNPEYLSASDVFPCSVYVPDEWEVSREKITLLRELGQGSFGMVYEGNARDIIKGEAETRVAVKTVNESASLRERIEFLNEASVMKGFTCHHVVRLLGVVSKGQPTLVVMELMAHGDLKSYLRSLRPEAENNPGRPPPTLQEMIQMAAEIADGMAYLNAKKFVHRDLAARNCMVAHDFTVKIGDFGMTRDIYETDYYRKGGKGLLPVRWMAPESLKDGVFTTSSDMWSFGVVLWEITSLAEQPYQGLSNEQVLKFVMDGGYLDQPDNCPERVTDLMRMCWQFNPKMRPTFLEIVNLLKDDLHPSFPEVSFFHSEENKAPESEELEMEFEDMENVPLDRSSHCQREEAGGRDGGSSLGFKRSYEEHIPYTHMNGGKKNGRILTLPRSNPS

[10] = target: T3, ATP-dependent 6-phosphofructokinase, platelet type (Homo sapiens, UniProt Q01813)
T3 sequence (Q01813 whole entry): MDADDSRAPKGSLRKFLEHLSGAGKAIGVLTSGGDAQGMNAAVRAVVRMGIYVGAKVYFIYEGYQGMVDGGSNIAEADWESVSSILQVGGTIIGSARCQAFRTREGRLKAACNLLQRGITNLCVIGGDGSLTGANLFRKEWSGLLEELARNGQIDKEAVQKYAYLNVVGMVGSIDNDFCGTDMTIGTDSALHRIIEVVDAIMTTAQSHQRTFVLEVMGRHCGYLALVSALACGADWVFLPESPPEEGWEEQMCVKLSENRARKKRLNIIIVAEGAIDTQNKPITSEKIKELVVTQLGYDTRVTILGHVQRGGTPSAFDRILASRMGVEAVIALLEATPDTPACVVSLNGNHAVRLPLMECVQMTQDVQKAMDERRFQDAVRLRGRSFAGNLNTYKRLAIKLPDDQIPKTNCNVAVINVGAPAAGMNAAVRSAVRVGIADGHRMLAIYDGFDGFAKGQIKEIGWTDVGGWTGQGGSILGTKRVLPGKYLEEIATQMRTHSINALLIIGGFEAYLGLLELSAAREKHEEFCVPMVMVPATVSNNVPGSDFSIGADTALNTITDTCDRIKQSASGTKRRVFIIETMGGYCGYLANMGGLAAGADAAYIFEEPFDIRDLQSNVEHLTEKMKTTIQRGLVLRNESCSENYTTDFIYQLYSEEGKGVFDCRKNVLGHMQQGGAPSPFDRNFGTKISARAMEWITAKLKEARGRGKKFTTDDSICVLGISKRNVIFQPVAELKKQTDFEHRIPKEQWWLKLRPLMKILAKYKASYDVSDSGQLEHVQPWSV

[11] = target: Macrophage-stimulating protein receptor (Homo sapiens, UniProt Q04912)
Also: in the data inactive means no Kd found up to 30 µM.

cAMP-dependent protein kinase type II-alpha regulatory subunit, sequence (P13861 whole entry): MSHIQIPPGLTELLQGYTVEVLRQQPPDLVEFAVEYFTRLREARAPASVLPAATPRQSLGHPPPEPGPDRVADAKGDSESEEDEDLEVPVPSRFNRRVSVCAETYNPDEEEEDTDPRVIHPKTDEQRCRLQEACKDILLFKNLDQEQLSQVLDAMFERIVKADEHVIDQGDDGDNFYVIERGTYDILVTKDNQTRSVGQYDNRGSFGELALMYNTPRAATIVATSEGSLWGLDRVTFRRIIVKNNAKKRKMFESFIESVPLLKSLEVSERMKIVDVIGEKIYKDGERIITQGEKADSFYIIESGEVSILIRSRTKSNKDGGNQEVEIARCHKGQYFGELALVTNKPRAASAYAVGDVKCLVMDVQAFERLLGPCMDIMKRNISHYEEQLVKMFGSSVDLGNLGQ

SMILES	Kd [1]	Kd [2]	Kd [3]	Kd [4]	Kd [5]	Kd [6]	Kd [7]	Kd [8]	Kd [9]	Kd [10]	Kd [11]
COc1cc2nccc(Oc3ccc(NC(=O)C4(C(=O)Nc5ccc(F)cc5)CC4)cc3)c2cc1OC [CABOZANTINIB]	> 30 µM (inactive)	> 30 µM (inactive)	> 30 µM (inactive)	> 30 µM (inactive)	> 30 µM (inactive)	> 30 µM (inactive)	> 30 µM (inactive)	> 30 µM (inactive)	> 30 µM (inactive)	> 30 µM (inactive)	
CN(c1ncccc1CNc1nc(Nc2ccc3c(c2)CC(=O)N3)ncc1C(F)(F)F)S(C)(=O)=O [PF-00562271]	> 30 µM (inactive)	> 30 µM (inactive)	> 30 µM (inactive)	> 30 µM (inactive)	> 30 µM (inactive)	> 30 µM (inactive)		> 30 µM (inactive)		> 30 µM (inactive)	
C=CCn1c(=O)c2cnc(Nc3ccc(N4CCN(C)CC4)cc3)nc2n1-c1cccc(C(C)(C)O)n1 [ADAVOSERTIB]	> 30 µM (inactive)	> 30 µM (inactive)	> 30 µM (inactive)	> 30 µM (inactive)	> 30 µM (inactive)	> 30 µM (inactive)	> 30 µM (inactive)	> 30 µM (inactive)	> 30 µM (inactive)	> 30 µM (inactive)	
COc1cc2c(Oc3ccc4[nH]c(C)cc4c3F)ncnc2cc1OCCCN1CCCC1 [CEDIRANIB]		> 30 µM (inactive)						> 30 µM (inactive)		> 30 µM (inactive)	
CC1(C)CNc2cc(NC(=O)c3cccnc3NCc3ccncc3)ccc21 [MOTESANIB]		> 30 µM (inactive)						> 30 µM (inactive)		> 30 µM (inactive)	
CCOc1ccn(-c2ccc(F)cc2)c(=O)c1C(=O)Nc1ccc(Oc2ccnc(N)c2Cl)c(F)c1 [BMS-777607]	> 30 µM (inactive)	> 30 µM (inactive)	> 30 µM (inactive)	> 30 µM (inactive)	> 30 µM (inactive)	> 30 µM (inactive)	> 30 µM (inactive)	> 30 µM (inactive)		> 30 µM (inactive)	> 30 µM (inactive)
CN(C)C/C=C/C(=O)Nc1cc2c(Nc3ccc(F)c(Cl)c3)ncnc2cc1O[C@H]1CCOC1 [AFATINIB]		> 30 µM (inactive)						> 30 µM (inactive)			
CCc1nc(C(N)=O)c(Nc2ccc(N3CCC(N4CCN(C)CC4)CC3)c(OC)c2)nc1NC1CCOCC1 [GILTERITINIB]	0.188 µM (active)	> 30 µM (inactive)	> 30 µM (inactive)	> 30 µM (inactive)	> 30 µM (inactive)	> 30 µM (inactive)	> 30 µM (inactive)	> 30 µM (inactive)		> 30 µM (inactive)	0.804 µM (active)
Cn1cnc2c(F)c(Nc3ccc(Br)cc3Cl)c(C(=O)NOCCO)cc21 [SELUMETINIB]		> 30 µM (inactive)						> 30 µM (inactive)		> 30 µM (inactive)	
Cn1c(=O)n(-c2ccc(C(C)(C)C#N)cc2)c2c3cc(-c4cnc5ccccc5c4)ccc3ncc21 [DACTOLISIB]	> 30 µM (inactive)	> 30 µM (inactive)	> 30 µM (inactive)	> 30 µM (inactive)	> 30 µM (inactive)	> 30 µM (inactive)	> 30 µM (inactive)	> 30 µM (inactive)	> 30 µM (inactive)	> 30 µM (inactive)	
COc1cc2c(N3CCN(C(=O)Nc4ccc(OC(C)C)cc4)CC3)ncnc2cc1OCCCN1CCCCC1 [TANDUTINIB]		> 30 µM (inactive)						> 30 µM (inactive)			
O=S(=O)(c1cccc2cnccc12)N1CCCNCC1 [FASUDIL]	> 30 µM (inactive)	> 30 µM (inactive)	> 30 µM (inactive)	> 30 µM (inactive)		> 30 µM (inactive)	1.92 µM (active)	> 30 µM (inactive)		> 30 µM (inactive)	
CCN(CCCOc1ccc2c(Nc3cc(CC(=O)Nc4cccc(F)c4)n[nH]3)ncnc2c1)CCOP(=O)(O)O [BARASERTIB]	> 30 µM (inactive)	> 30 µM (inactive)	> 30 µM (inactive)	> 30 µM (inactive)	> 30 µM (inactive)	> 30 µM (inactive)		> 30 µM (inactive)	> 30 µM (inactive)	> 30 µM (inactive)	
C[C@@]1(C(=O)Nc2ccc(F)nc2)CCCN1c1nc(Nc2cc(C3CC3)n[nH]2)c2cccn2n1 [BMS-754807]								> 30 µM (inactive)		> 30 µM (inactive)	
CN1CCN(c2nc(C3=C(c4c[nH]c5ccccc45)C(=O)NC3=O)c3ccccc3n2)CC1 [SOTRASTAURIN]	> 30 µM (inactive)	> 30 µM (inactive)	> 30 µM (inactive)	> 30 µM (inactive)	> 30 µM (inactive)	> 30 µM (inactive)	> 30 µM (inactive)	> 30 µM (inactive)		> 30 µM (inactive)	> 30 µM (inactive)
CC(C)CC(=O)Nc1[nH]nc2c1CN(C(=O)C1CCN(C)CC1)C2(C)C [PHA-793887]	> 30 µM (inactive)	> 30 µM (inactive)	> 30 µM (inactive)	> 30 µM (inactive)	0.838 µM	> 30 µM (inactive)		> 30 µM (inactive)		> 30 µM (inactive)	> 30 µM (inactive)
C[C@]1(O)C[C@@H](c2nc(-c3ccc4ccc(-c5ccccc5)nc4c3)c3c(N)nccn32)C1 [LINSITINIB]	> 30 µM (inactive)	> 30 µM (inactive)	> 30 µM (inactive)	> 30 µM (inactive)	> 30 µM (inactive)	> 30 µM (inactive)		> 30 µM (inactive)		> 30 µM (inactive)	
